The target of series [1] is CYP2D6 (Homo sapiens (Human), UniProt P10635).
Series [2] in a line: Metabolic stability and clearance in cynomolgus monkey liver microsomes. The class given is in vitro ADME. The method, then:
(§1) The results of metabolic stability determinations for novel compounds and testosterone (positive control) were conducted in the presence of human, rat, mouse, and monkey liver microsomes. Values shown are percent of parent remaining after a 30 minute incubation. All measurements were done in duplicate. Assay results for testosterone were within an acceptable range.
(§2) Mixed-gender human liver microsomes (Lot# 1710084), male Sprague-Dawley rat liver microsomes (Lot# 1610290), male CD-1 mouse liver microsomes (Lot# 1710069), and male Cynomolgous liver microsomes (Lot# 1510193) were purchased from XenoTech. […]. The test article was added into the reaction mixture at a final concentration of 1 μM. The control compound, testosterone, was run simultaneously with the test article in a separate reaction. An aliquot of the reaction mixture (without cofactor) was equilibrated in a shaking water bath at 37° C. for 3 minutes. The reaction was initiated by the addition of cofactor, and the mixture was incubated in a shaking water bath at 37° C. Aliquots (100 μL) were withdrawn at 0, 10, 20, 30, and 60 minutes. Test article and testosterone samples were immediately combined with 400 μL of ice-cold 50/50 acetonitrile (ACN)/H2O containing 0.1% formic acid and internal standard to terminate the reaction. […] Half-lives were calculated using GraphPad software, fitting to a single-phase exponential decay equation.
For orientation: Liver microsomes are vesicles of endoplasmic reticulum, rich in cytochrome P450 enzymes.

Series [3] in a line: Metabolic stability and clearance in mouse liver microsomes. The class given is in vitro ADME. The method, then: as §1, §2
The conditions of series [4]: CD-1 mice.
For series [5], the target named is CYP2C9 (Homo sapiens (Human), UniProt P11712). Description: CYP450 inhibition assay, CYP2C9. The class given is in vitro ADME.
Series [6] can be described thus: in vivo. The conditions noted are these: male, CD-1, mouse.
In series [7] the target is CYP2C19 (Homo sapiens (Human), UniProt P33261). Description: CYP450 inhibition assay, CYP2C19. To be noted: pH 7.4, read-out: CYP Inhibition (% Inhibition at 10 μm) 2C19. The class given is in vitro ADME.
Series [8] is described as follows: Kinetic solubility assay. The class given is physicochemical. To be noted: PBS pH 7.4.
Series [9] deals with serum RBP4. Description: Serum RBP4 measurement after single oral dose in mice (PK-PD). The class given is in vivo, mouse. As to the method:
FIG. 6. Pharmacokinetic and pharmacodynamic properties of 18a in mice. […]. Data are presented as means±SD. Three mice per treatment group were used in the PK-PD study.
Blood samples were collected from a tail vein. Whole blood was drawn into a centrifuge tube and was allowed to clot at room temperature for 30 minutes followed by centrifugation at 2000 g for 15 minutes at […] to collect serum. […] Whole blood was drawn into a centrifuge tube and was allowed to clot at room temperature for 30 min followed by centrifugation at 2000 g for 15 min at +4° C to collect serum.
There was no effect of compound dosing on serum TTR levels (data not shown). […].

Series [10] can be described thus: Plasma protein binding, human. The class given is in vitro ADME. From the text: The peak areas of the test compound in the buffer and test samples were used to calculate percent binding and recovery according to the following formulas:
Areap=Peak area of analyte in protein matrix Areab=Peak area of analyte in buffer Areac=Peak area of analyte in control sample

Series [11] can be described thus: Metabolic stability and clearance in human liver microsomes. The class given is in vitro ADME. As to the method:
as §1, §2

For series [12], the target named is peroxisome proliferator-activated receptor-gamma (PPARγ) receptor (Homo sapiens (Human), UniProt P37231). Briefly: PPARγ activity.
The nature of series [13]: Metabolic stability and clearance in rat liver microsomes. The class given is in vitro ADME. The method, then:
as §1, §2

Series [14] has as its target native RBP4 purified from human urine (Homo sapiens (Human), UniProt P02753). Briefly: RBP4 scintillation proximity (SPA) binding assay. To be noted: read-out: RBP4 SPA IC50; fixed 10 nM 3H-retinol. On the technique in general: Scintillation proximity formats need no separation of bound from free tracer.
Series [15] addresses TTR isolated from human plasma (Homo sapiens (Human), UniProt P02766). Briefly: Fluorescence polarization TTR tetramer binding assay. To be noted: fixed 25 μM FITC-coupled TTR FP probe. A general note: Fluorescence polarisation rises when a labelled molecule tumbles more slowly, as on binding a larger partner.
For series [16], the target named is human TTR (Homo sapiens (Human), UniProt P02766). Description: Low pH-induced TTR aggregation assay (SDS-PAGE/Western blot). The class given is biochemical. To be noted: 50 μM compound, pH 4.0, 72 h, 37° C. The method, then:
FIG. 5. […]. Bar graphs represent pixel volume means±S.D. of the scanned bands on the immunoblots in arbitrary units for TTR high-molecular-weight aggregates (B), dimers (C), and monomers (D). Statistical significance was determined by one-way ANOVA with Holm-Sidak post hoc test; *, p≤0.05**, p≤0.01***, p≤0.001; ****, p≤0.0001 compared to TTR aggregation+DMSO group (pH4.0) *, p=0.05, **, p≤0.01; ***, p≤0.001; ****, […] compare to TTR without aggregation group (pH=7.5).
The ability of test compounds to prevent TTR aggregation was evaluated under the acidic conditions that favor TTR aggregation and fibril formation. […] At the end of the incubation, 3.5 μl 500 mM sodium phosphate (Sigma #S5136) buffer (pH=8.0) was added to each sample for neutralization and 0.6 μl 5% CHAPS (Sigma #C5070) as a detergent to prevent reassociation of protein. The cross-linking was performed by adding 1.5 μl 5% glutaraldehyde solution (Sigma# G6257). After 4 min, the reaction was stopped by the addition of 2.5 μl freshly made 5% NaBH4. […] Band intensity for TTR monomer and TTR aggregates was quantified from scanned images of the blots.
The ability of TTR ligands to act as kinetic stabilizers of TTR tetramers was assessed in vitro using a low pH-induced TTR aggregation SDS-PAGE assay (Coelho, T. et al. 2016; Cruz, M. W. 2019). […]

The conditions of series [17]: 441 ATTR-CM patients; cited from earlier work.

Where two headings read alike, the source gives them in different places. Bounds are passed on as bounds.

Chain of CYP2C19 (P33261 whole entry): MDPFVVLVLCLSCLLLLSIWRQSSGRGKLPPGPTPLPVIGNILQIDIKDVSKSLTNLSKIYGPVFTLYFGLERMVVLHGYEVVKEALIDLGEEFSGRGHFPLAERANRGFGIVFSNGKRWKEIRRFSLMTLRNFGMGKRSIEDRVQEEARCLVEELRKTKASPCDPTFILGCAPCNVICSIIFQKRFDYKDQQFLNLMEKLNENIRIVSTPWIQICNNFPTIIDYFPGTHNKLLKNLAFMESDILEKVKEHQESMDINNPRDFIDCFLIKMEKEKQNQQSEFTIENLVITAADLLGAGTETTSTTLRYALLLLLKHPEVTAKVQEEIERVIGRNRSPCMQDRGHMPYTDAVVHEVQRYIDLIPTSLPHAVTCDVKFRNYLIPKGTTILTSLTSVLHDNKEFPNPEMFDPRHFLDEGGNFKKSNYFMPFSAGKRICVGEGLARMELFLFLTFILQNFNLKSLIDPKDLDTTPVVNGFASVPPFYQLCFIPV
Chain of peroxisome proliferator-activated receptor-gamma (PPARγ) receptor (P37231 whole entry, species assumed): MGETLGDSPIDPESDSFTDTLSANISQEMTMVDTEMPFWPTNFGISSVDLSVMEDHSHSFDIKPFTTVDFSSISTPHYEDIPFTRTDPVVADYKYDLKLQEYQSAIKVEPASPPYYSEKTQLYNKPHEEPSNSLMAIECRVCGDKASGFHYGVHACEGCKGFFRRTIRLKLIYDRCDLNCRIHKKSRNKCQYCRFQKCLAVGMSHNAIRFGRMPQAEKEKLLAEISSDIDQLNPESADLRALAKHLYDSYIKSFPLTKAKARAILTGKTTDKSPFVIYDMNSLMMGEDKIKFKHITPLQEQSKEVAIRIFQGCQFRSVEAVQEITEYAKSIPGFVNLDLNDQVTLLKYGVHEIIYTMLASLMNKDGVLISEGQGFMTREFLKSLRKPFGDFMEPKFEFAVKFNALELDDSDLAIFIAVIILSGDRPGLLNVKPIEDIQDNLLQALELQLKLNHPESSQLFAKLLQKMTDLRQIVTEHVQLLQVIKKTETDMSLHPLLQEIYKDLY
Chain of CYP2C9 (P11712 whole entry): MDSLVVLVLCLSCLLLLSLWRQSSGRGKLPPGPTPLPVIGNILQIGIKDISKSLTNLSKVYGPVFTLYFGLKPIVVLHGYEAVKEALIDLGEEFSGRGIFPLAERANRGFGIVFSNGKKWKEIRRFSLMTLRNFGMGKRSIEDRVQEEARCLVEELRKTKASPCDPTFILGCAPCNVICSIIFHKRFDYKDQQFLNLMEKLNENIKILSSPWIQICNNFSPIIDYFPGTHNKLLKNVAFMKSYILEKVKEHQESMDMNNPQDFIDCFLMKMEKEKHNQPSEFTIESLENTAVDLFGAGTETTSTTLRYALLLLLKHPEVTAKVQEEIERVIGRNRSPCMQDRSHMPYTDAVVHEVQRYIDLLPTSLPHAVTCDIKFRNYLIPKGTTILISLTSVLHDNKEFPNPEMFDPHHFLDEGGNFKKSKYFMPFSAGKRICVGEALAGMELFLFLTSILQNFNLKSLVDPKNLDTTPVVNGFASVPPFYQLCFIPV
Chain of CYP2D6 (P10635 whole entry): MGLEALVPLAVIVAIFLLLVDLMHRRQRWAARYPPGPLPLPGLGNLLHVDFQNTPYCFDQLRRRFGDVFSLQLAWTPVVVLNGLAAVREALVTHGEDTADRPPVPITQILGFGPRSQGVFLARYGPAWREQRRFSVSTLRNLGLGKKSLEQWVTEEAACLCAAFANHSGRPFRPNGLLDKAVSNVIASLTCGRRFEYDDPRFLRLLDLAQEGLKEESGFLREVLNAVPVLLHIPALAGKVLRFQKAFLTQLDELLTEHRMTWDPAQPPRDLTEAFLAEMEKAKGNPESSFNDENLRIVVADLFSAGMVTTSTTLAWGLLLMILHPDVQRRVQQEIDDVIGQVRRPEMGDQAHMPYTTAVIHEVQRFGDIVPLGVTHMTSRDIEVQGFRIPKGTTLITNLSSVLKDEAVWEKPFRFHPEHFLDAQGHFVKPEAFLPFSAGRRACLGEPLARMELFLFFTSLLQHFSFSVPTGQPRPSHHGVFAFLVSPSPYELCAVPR

Consider `Cc1n[nH]c(C)c1N1CCN(c2cc(C(=O)O)ccc2F)CC1` [Compound 18a, 3-(4-(3,5-Dimethyl-1H-pyrazol-4-yl)piperazin-1-yl)-4-fluorobenzoic Acid], for which the “CYP Inhibition (% Inhibition at 10 μm) 2D6” value in series [1] is 2D6 - 8.1%. Further, the “Liver Microsomal Stability (% remaining at 30 min) cyno LM” value in series [2] (30 minute incubation) turned out to be 94%. The microsomal CLint (usually the rate of metabolic loss divided by the concentration) at 1 μM in series [2] (male, cynomolgus monkey liver microsomes, read-out: Microsomal CLint, cyno) was below 0.0231 µL/min/mg. Moreover, the “Liver Microsomal Stability (% remaining at 30 min) MLM” value in [3] (30 minute incubation) amounted to 102%. Further, in series [3] (male, CD-1, mouse liver microsomes), the microsomal CLint at 1 μM is below 0.0231 µL/min/mg. In series [4] (IV 2 mg/kg), the AUCINF came to 6242 ng·h/mL; the AUClast is 6214 ng·h/mL; the “CL, total body clearance” value turned out to be 5.9 mL/min/kg; the Vss (as a rule, a proportionality between amount in the body and measured concentration, not a real space) was 2.18 L/kg. The molecule further displayed a t1/2 in [4] (IV 2 mg/kg) of 5.08 h. The “% F, oral bioavailability” value in series [4] (PO 5 mg/kg vs IV 2 mg/kg) was 103%. In [4] (PO 5 mg/kg), this molecule showed an AUCINF of 16073 ng·h/mL, an AUClast of 16040 ng·h/mL and a t1/2 of 5.38 h. In addition, the “CYP Inhibition (% Inhibition at 10 μm) 2C9” value in series [5] came out at 2C9 - 10.4%. Besides, in series [6] (iv, 2 mg/kg), the clearance (usually the rate of elimination divided by the concentration) is 5.9 mL/min/kg and the half-life (usually the time in which the quantity being followed falls by half) was 5.08 h. In series [6] (po, 5 mg/kg), the AUC(0-inf) (usually total exposure, with the tail of the curve extrapolated) stood at 16100 ng·h/mL and the Cmax (in general, the peak of the concentration-time curve) worked out at 1560 ng/mL. The inhibition (usually the share of the control response that was lost under treatment) at 10 µM in [7] stood at 3.1%. The molecule also displayed a Kinetic solubility in series [8] of 184.5 µM. For the same molecule, the “effect on serum TTR levels” value in [9] (after compound dosing, data not shown) was “no effect”. In [9] (single 25 mg/kg oral dose, 2 h after administration), the “maximal reduction in serum RBP4” value is on record as 66%. Further, the “% PPB human” value in series [10] is listed as 83%. Further, in series [11] (30 minute incubation), the “Liver Microsomal Stability (% remaining at 30 min) HLM” value turned out to be 93%. The molecule also gave a microsomal CLint at 1 μM in series [11] (both sexes, human liver microsomes) below 0.0231 µL/min/mg. For the same molecule, the EC50 (in general, the concentration needed to bring the measured effect to its halfway point) in series [12] is above 100000 nM. Also, the “Liver Microsomal Stability (% remaining at 30 min) RLM” value in series [13] (30 minute incubation) came out at 98%. In addition, in [13] (male, Sprague-Dawley, rat liver microsomes), the microsomal CLint at 1 μM was below 0.0231 µL/min/mg.
With `Cc1n[nH]c(C)c1N1CCN(c2cc(C(N)=O)ccc2F)CC1` [Compound 21, 3-(4-(3,5-Dimethyl-1H-pyrazol-4-yl)piperazin-1-yl)-4-fluorobenzamide], the IC50 – broadly, the concentration at which inhibition is half-maximal – in [14] was above 3000 nM.
In [8], `CC/C(=C(/CC)c1ccc(O)cc1)c1ccc(O)cc1` [Diethylstilbesterol] came in with a Kinetic solubility of 7.0 µM.
As to `Cc1n[nH]c(C)c1N1CCN(c2cc(C(=O)O)ccc2C(F)(F)F)CC1` [Compound 18e, 3-(4-(3,5-Dimethyl-1H-pyrazol-4-yl)piperazin-1-yl)-4-(trifluoromethyl)benzoic Acid], the IC50 in series [14] was above 3000 nM.
As to `Cc1n[nH]c(C)c1N1CCN(c2cccc(C(=O)O)c2)CC1` [Compound 18b, 3-(4-(3,5-Dimethyl-1H-pyrazol-4-yl)piperazin-1-yl)benzoic Acid], the IC50 in [14] is above 30000 nM.
Turning to `Cc1n[nH]c(C)c1N1CCN(c2cccc(C(=O)O)c2F)CC1` [Compound 18g, 3-(4-(3,5-Dimethyl-1H-pyrazol-4-yl)piperazin-1-yl)-2-fluorobenzoic Acid], the IC50 in series [14] was above 3000 nM.
`Cc1n[nH]c(C)c1N1CCN(c2ccc(F)c(C(=O)O)c2)CC1` [Compound 18h, 5-(4-(3,5-Dimethyl-1H-pyrazol-4-yl)piperazin-1-yl)-2-fluorobenzoic Acid]: the IC50 in [14] was above 3000 nM.
Same read-out and setting: the value for `Cc1n[nH]c(C)c1CCCOc1cc(C(=O)O)ccc1F` [AG10 (4), AG10, reference compound] was above 30000 nM.
Take `CC(=O)N1CCN(c2ccc(OCC3COC(Cn4ccnc4)(c4ccc(Cl)cc4Cl)O3)cc2)CC1` (stereo not shown) [Ketoconazole]: in [8], the Kinetic solubility is 152.8 µM.
For the molecule `COc1ccc(C(=O)O)cc1N1CCN(c2c(C)n[nH]c2C)CC1` [Compound 18c, 3-(4-(3,5-Dimethyl-1H-pyrazol-4-yl)piperazin-1-yl)-4-methoxybenzoic Acid], the IC50 in series [15] is 300 nM; in [14] it was above 3000 nM.
In the case of `Cc1ccc(C(=O)O)cc1N1CCN(c2c(C)n[nH]c2C)CC1` [Compound 18d, 3-(4-(3,5-Dimethyl-1H-pyrazol-4-yl)piperazin-1-yl)-4-methylbenzoic Acid], in series [14], the IC50 is above 3000 nM.
Take `Cc1n[nH]c(C)c1N1CCN(c2cc(F)cc(C(=O)O)c2)CC1` [Compound 18i, 3-(4-(3,5-Dimethyl-1H-pyrazol-4-yl)piperazin-1-yl)-5-fluorobenzoic Acid]: the IC50 in series [14] was above 3000 nM.
`Cc1noc(C)c1N1CCN(c2cc(C(=O)O)ccc2F)CC1` [Compound 20, 3-(4-(3,5-Dimethylisoxazol-4-yl)piperazin-1-yl)-4-fluorobenzoic Acid]: the IC50 in series [14] was above 3000 nM.
On to `O=C(O)c1ccc2nc(-c3cc(Cl)cc(Cl)c3)oc2c1` [Tafamadis (3), tafamidis], for which, in series [16], the “formation of high molecular weight forms of TTR” value was “significantly inhibited”. Moreover, the half-maximal inhibitory concentration (IC50) in [14] was above 30000 nM. Moreover, in series [17], the “reduction of rate of cardiovascular-related hospitalizations compared to placebo” value was 32% and the “reduction of risk of death compared to placebo” value is on record as 30%.
`Cc1cc(F)c(N2CCN(c3c(C)n[nH]c3C)CC2)cc1C(=O)O` [Compound 18j, 5-(4-(3,5-Dimethyl-1H-pyrazol-4-yl)piperazin-1-yl)-4-fluoro-2-methylbenzoic Acid]: the IC50 in series [14] is above 3000 nM.
Same read-out and setting: the figure for `Cc1n[nH]c(C)c1N1CCN(c2cc(C(=O)O)ccc2Cl)CC1` [Compound 18f, 4-Chloro-3-(4-(3,5-dimethyl-1H-pyrazol-4-yl)piperazin-1-yl)benzoic Acid] is above 3000 nM; for `Cc1n[nH]c(C)c1N1CCN(c2cc(-c3nn[nH]n3)ccc2F)CC1` [Compound 22, 1-(3,5-Dimethyl-1H-pyrazol-4-yl)-4-(2-fluoro-5-(2H-tetrazol-5-yl)phenyl)piperazine] it is above 3000 nM.

The record behind these values is patent US20240150297A1, “NOVEL COMPOUNDS COMPRISING A NEW CLASS OF TRANSTHYRETIN LIGANDS FOR TREATMENT OF COMMON AGE-RELATED COMORBIDITIES” (The Trustees of Columbia University in the City of New York, priority 2021, published 2024).
